The supplement of paper PMC10307832

Experiments:
Assay in all cases: relative viability (nuclei count vs DMSO), 5 days (fraction); higher = more cells survive
[1] = compound: CC1(C)CCC(CN2CCN(c3ccc(C(=O)NS(=O)(=O)c4ccc(NCC5CCOCC5)c([N+](=O)[O-])c4)c(Oc4cnc5[nH]ccc5c4)c3)CC2)=C(c2ccc(Cl)cc2)C1 [Venetoclax] + Cc1cc(Nc2cc(N3CCN(C)CC3)nc(Sc3ccc(NC(=O)C4CC4)cc3)n2)n[nH]1 [Tozasertib] (partner 0.1 µM)
Procedure, shortened: (§1)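 Relative viability divides the nuclei count in treated wells by that in vehicle wells. Lung cancer cell lines were seeded in 1536-well plates, dosed by pin tool the next day, and fixed and stained after 5 days in one step with final 0.05% Triton X-100, 1% formaldehyde and 1 ug/ml Hoechst. Dosing was a single drug or a fixed anchor-drug dose plus five library-drug doses (not always all listed) in √10 steps, and values are medians of duplicate plates imaged at 4×.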

[2] = compound: Cn1cnc2c(F)c(Nc3ccc(Br)cc3Cl)c(C(=O)NOCCO)cc21 [Selumetinib] + CC(C)C[C@H](NC(=O)[C@H](Cc1ccccc1)NC(=O)c1cnccn1)B(O)O [Bortezomib] (partner 0.002 µM)
Procedure, shortened: as §1

[3] = compound: Cn1cnc2c(F)c(Nc3ccc(Br)cc3Cl)c(C(=O)NOCCO)cc21 [Selumetinib] + COc1cc2c(Oc3ccc(NC(=O)C4(C(=O)Nc5ccc(F)cc5)CC4)cc3F)ccnc2cc1OCCCN1CCOCC1 [Foretinib] (partner 0.25 µM)
Procedure, shortened: as §1

[4] = compound: Cn1cnc2c(F)c(Nc3ccc(Br)cc3Cl)c(C(=O)NOCCO)cc21 [Selumetinib] + C[C@]1(O)C[C@@H](c2nc(-c3ccc4ccc(-c5ccccc5)nc4c3)c3c(N)nccn32)C1 [Linsitinib] (partner 1 µM)
Procedure, shortened: as §1

Cell Line | relative viability ([1]; first compound 0.01 µM) | relative viability ([1]; first compound 0.03162 µM) | relative viability ([1]; first compound 0.1 µM) | relative viability ([1]; first compound 0.3162 µM) | relative viability ([1]; first compound 1 µM) | relative viability ([2]; first compound 0.02 µM) | relative viability ([2]; first compound 0.06325 µM) | relative viability ([2]; first compound 0.2 µM) | relative viability ([2]; first compound 0.6325 µM) | relative viability ([3]; first compound 0.02 µM) | relative viability ([3]; first compound 0.06325 µM) | relative viability ([3]; first compound 0.2 µM) | relative viability ([3]; first compound 0.6325 µM) | relative viability ([4]; first compound 0.02 µM) | relative viability ([4]; first compound 0.06325 µM) | relative viability ([4]; first compound 0.2 µM) | relative viability ([4]; first compound 0.6325 µM)
NCI-H650 | 0.682 | 0.719 | 0.685 | 0.697 | 0.674 | 1.01 | 0.995 | 1.25 | 1.17 | 1.07 | 1.18 | 1.21 | 1.17 | 1.18 | 1.03 | 0.941 | 1.07
A-427 | 0.203 | 0.24 | 0.212 | 0.201 | 0.186 | 1.06 | 0.978 | 1.05 | 0.959 | 1.17 | 1.11 | 0.954 | 0.756 | 1.16 | 1.09 | 1.02 | 0.925
EMC-BAC-2 | 0.3 | 0.285 | 0.28 | 0.273 | 0.259 | 1.06 | 1.07 | 1.01 | 0.999 | 0.882 | 0.972 | 0.85 | 0.875 | 0.732 | 0.668 | 0.707 | 0.743
NCI-H520 | 0.413 | 0.406 | 0.434 | 0.443 | 0.403 | 0.635 | 0.47 | 0.498 | 0.575 | 0.746 | 0.759 | 1.02 | 0.758 | 1.08 | 0.944 | 1.09 | 1.07
LOU-NH91 | 0.652 | 0.697 | 0.576 | 0.684 | 0.604 | 0.465 | 0.479 | 0.476 | 0.479 | 0.87 | 0.859 | 0.834 | 0.738 | 0.773 | 0.846 | 0.783 | 0.727
HOP-62 | 0.414 | 0.321 | 0.409 | 0.31 | 0.313 | 1.06 | 0.779 | 0.496 | 0.475 | 1.06 | 1.02 | 0.807 | 0.504 | 0.98 | 1.05 | 0.93 | 0.469
NCI-H1563 |  |  |  |  |  | 0.804 | 0.68 | 0.726 | 0.786 | 0.879 | 0.955 | 0.903 | 0.824 | 1.15 | 1.2 | 1.11 | 1.11
NCI-H1792 |  |  |  |  |  | 0.852 | 0.789 | 0.706 | 0.677 |  |  |  |  | 0.442 | 0.475 | 0.361 | 0.251
HCC-15 | 0.45 | 0.47 | 0.371 | 0.324 | 0.273 | 0.842 | 0.677 | 0.559 | 0.424 | 0.777 | 0.637 | 0.439 | 0.293 | 0.674 | 0.502 | 0.351 | 0.232
HCC-366 | 0.094 | 0.119 | 0.123 | 0.0769 | 0.0514 | 1.07 | 0.935 | 0.864 | 0.761 | 0.866 | 0.865 | 0.755 | 0.645 | 0.525 | 0.406 | 0.249 | 0.229
LU99A | 0.28 | 0.26 | 0.234 | 0.295 | 0.321 | 1.35 | 1.05 | 1.18 | 1.37 | 0.898 | 0.729 | 0.83 | 0.699 | 0.49 | 0.567 | 0.511 | 0.566
SW 1573 | 0.217 | 0.206 | 0.207 | 0.137 | 0.171 | 1.01 | 0.86 | 0.802 | 0.932 | 0.909 | 0.776 | 0.638 | 0.598 | 0.779 | 0.642 | 0.683 | 0.596
NCI-H1703 |  |  |  |  |  | 0.309 | 0.255 | 0.403 | 0.434 | 0.438 | 0.318 | 0.369 | 0.32 | 0.75 | 0.637 | 0.67 | 0.824
NCI-H2170 | 0.723 | 0.68 | 0.592 | 0.646 | 0.632 |  |  |  |  | 0.987 | 0.954 | 0.967 | 0.952 |  |  |  | 
NCI-H2087 | 0.278 | 0.261 | 0.245 | 0.241 | 0.229 | 0.626 | 0.542 | 0.456 | 0.351 | 0.982 | 0.718 | 0.507 | 0.304 | 0.817 | 0.647 | 0.595 | 0.374
LCLC-103H | 0.575 | 0.396 | 0.36 | 0.51 | 0.454 | 1.01 | 1.06 | 0.993 | 0.978 | 0.744 | 0.64 | 0.646 | 0.72 | 1.04 | 0.952 | 0.804 | 0.968
NCI-H1755 | 0.569 | 0.504 | 0.586 | 0.593 | 0.547 | 0.952 | 0.859 | 0.834 | 0.914 | 0.874 | 0.807 | 0.824 | 0.847 | 0.95 | 0.852 | 0.845 | 0.848
NCI-H1650 | 0.456 | 0.409 | 0.427 | 0.406 | 0.299 | 0.199 | 0.172 | 0.215 | 0.222 | 0.992 | 0.888 | 0.842 | 0.928 |  |  |  | 
HARA | 0.0626 | 0.109 | 0.0841 | 0.116 | 0.106 | 1.03 | 1.07 | 1.01 | 0.861 | 0.905 | 0.726 | 0.71 | 0.592 | 0.916 | 0.837 | 0.84 | 0.334
Calu-6 |  |  |  |  |  | 1.07 | 0.792 | 0.648 | 0.558 | 0.817 | 0.702 | 0.515 | 0.383 | 1.03 | 0.77 | 0.522 | 0.362
